Experimental data as given in patent EP1353942B1, “PEPTIDE INHIBITORS OF HIV ENTRY” (WHITEHEAD INSTITUTE FOR BIOMEDICAL RESEARCH, priority 2000, dated 2010).
Like-named read-outs stand apart in the source and are kept apart here.

Legend:
[1] = molecular target: HIV-1 gp41 (C peptide region), from HXB2 gp160 envelope on pseudotyped virus (HIV-1 (HXB2)) (UniProt P04578); test: cell-based or functional assay
[2] = Sedimentation equilibrium (analytical ultracentrifugation); assay type: physicochemical; conditions: for Mobs/Mcalc: 20 µM peptide solutions in PBS, 3.0 being a discrete trimer
Procedure: Sedimentation Equilibrium. All measurements were recorded on a Beckman XL-A analytical ultracentrifuge equipped with an An-60 Ti rotor. Lyophilized peptide was resuspended in water, and the peptide concentration was determined (Edelhoch, 1967). The solution was diluted to 100-200 µM and then dialized overnight against PBS. Following dialysis, the concentration was redetermined and the appropriate dilutions were made, using the dialysis buffer. The samples were centrifuged at speeds ranging from 19,000 to 25,000 RPM.
(§1) The following Table summarizes the biophysical data and inhibitory activity for the chimeric coiled coil N peptides. The first column (θ222nm) is circular dichroism data, representing the helicity of each peptide. The lower the number, the more helical. The second column is the melting temperature and signifies the temperature at which half of the peptide is unfolded. The next column (Mobs/Mcalc) signifies the oligomeric state of the peptide, with 3.0 being a discrete trimer. The final column is the concentration at which each peptide is at half maximal inhibitory potency for viral infection. Table 1. Biophysical data and HIV-1 inhibitory activity
(§2) The second column is the ellipticity at 222 nm of a 20 µM solution of peptide in PBS. The third column lists the midpoint of thermal denaturation of 10 µM solutions of peptide in PBS.

[3] = Thermal denaturation followed by circular dichroism at 222 nm; assay type: physicochemical
Procedure: (§3) Circular Dichroism. All CD measurements were performed on an Aviv 62 DS cirucular dichroism spectrometer. Standard scans were performed on 10 µM solutions of peptide in PBS (50 mM sodium phosphate, 150 mM sodium chloride [pH 7.4]) from 200 to 260 nm in a 1 cm pathlength cuvette with a 5 second averaging time. The mean residue ellipticity (θ) was calculated by dividing the raw signal by peptide concentration (M), pathlength (mm) and number of amino acids. Percent helicity was calculated according to Chen et al. (Biochemistry, 13, 1974, p3350). Thermal denaturation scans of 10 µM peptide solutions in PBS were recorded at 222 nm. The peptide was heated at two degree intervals starting at 4°C, with an equilibration time of 1.5 minutes and an averaging time of 60 seconds.
as §1, §2

[4] = Circular dichroism (ellipticity at 222 nm, helicity); assay type: physicochemical; conditions: IZN17 at 20 µM
Procedure: as §3
as §1, with “Biophysical data and HIV-1 inhibitory activity” left out

HIV-1 = test system: HIV-1
Procedure: HIV Infectivity Assay. Inhibitory activity was determined in an HIV luciferase assay (Chen et al., 1994). Specifically, virus was made by cotransfecting 293T cells with an HIV-1 genome containing a frame-shift mutation in env and luciferase replacing the nef gene (NL43LucR-E-) along with pCMVHXB2, an expression vector with the HXB2 gp160 gene. The resultant virus is only viable for one round of infection since its genome lacks the envelope gene. The cellular debris was removed by low-speed centrifugation. The remaining viral supernatant was used to infect HOS-CD4/Fusion cells (N. Landau, National Institutes of Health AIDS Reagent Program) in the presence of the potentially inhibitory peptides. Two days post-infection, the cells were lysed and luciferase activity was monitored on a Wallac AutoLumat LB953 luminometer (Gaithersburg, MD). IC50s (the peptide concentration at which half of the viral infection is inhibited) were calculated by fitting the data to a Langmuir equation [y = k/(1+[peptide]/IC50)], where y = luciferase activity and k is a scaling constant.

Row | Substance | IC50 (nm), HIV-1 luciferase viral infectivity assay (HXB2 env pseudotyped virus on HOS-CD4/Fusin cells) [1] | Mobs/Mcalc [2] | thermal denaturation temperature relative to IQN17 ([3]; In 2 M GuHCl) | Melting Temperature ([3]; midpoint of thermal denaturation of 10 µM solutions of peptide in PBS) | melt (thermal unfolding) ([3]; no denaturant) | helicity (in words) [4] | oligomeric state (in words) ([2]; sedimentation equilibrium, IZN17 at 20 µM) | IC50 (HIV-1; concentration of peptide at which half of viral infectivity is inhibited, HOS-CD4/Fusion cells, HXB2 envelope, tentative values) | IC50 (HIV-1; read-out: IC50 in the viral infectivity assay, viral infectivity assay)
1 | IZN17 (peptide) | 5.6 nM |  |  |  |  |  |  |  | 
2 | Ac-YGGIKKEIEAIKKEQEAIKKKIEAIEKEIVQARQLLSGIVQQQNNLLRAIEAQQH-NH2 [IZN26] |  | ∼2.87 |  |  |  |  |  |  | 
3 | Ac-IKKEIEAIKKEQEAIKKKIEAIEKLLQLTVWGIKQLQARIL-NH2 [IZN17] |  | 3.05 | ten degrees higher | >100 °C | above 100 °C | helical | discretely trimeric | 5.6 nM | ~5.6 nM
